Patent US11236092B2, “Spiro-condensed pyrrolidine derivatives as deubiquitylating enzymes (DUB) inhibitors” (MISSION THERAPEUTICS LIMITED, priority 2016, dated 2022)

Biological target: Cezanne 1 (Homo sapiens (Human), UniProt Q6GQQ9)
Test: Cezanne 1 biochemical IC50 assay (fluorescence polarisation)
Details: FLAG-Cezanne 1; enzyme and compound incubated 30 min at room temp; 50 nM TAMRA labelled peptide linked to ubiquitin as substrate; read after 2 hr; read-out: IC50 range
Description: Expression and Purification of Cezanne 1
The Cezanne 1 construct was PCR amplified and cloned into a pFLAG-CMV-6c vector (Sigma-Aldrich) with an N-terminal FLAG tag. HEK293T cells were transfected with FLAG-Cezanne 1 using TransIT-LT1 transfection reagent (Mirus) according to the manufacturer's instructions. Cells were harvested 48 hours after transfection. […] The resin was washed two times with low salt buffer and one time with high salt buffer (20 mM Tris, pH 7.5, 500 mM NaCl, 0.5 mM EDTA, 5 mM beta-mercaptoethanol, protease inhibitors (complete mini, Roche) and phosphatase inhibitors (PhosSTOP mini, Roche). To elute the bound Cezanne 1, elution buffer (10 mM Tris, pH 7.5, 150 mM NaCl, 0.5 mM EDTA, 10% glycerol, 0.5% NP40, 5 mM beta-mercaptoethanol, 0.15 mg/ml 3X FLAG peptide (Sigma-Aldrich)) was added to the resin and incubated at 4° C. for 2.5 hours while rotating. The resin was centrifuged at 4000 rpm for 30 seconds, and the supernatant containing purified FLAG-Cezanne 1 was removed and stored at −80° C.
Cezanne 1 Biochemical IC50 Assay
Dilution plates were prepared at 21 times the final concentration (2100 μM for a final concentration of 100 μM) in 50% DMSO in a 96-well polypropylene V-bottom plate (Greiner #651201). A typical 8-point dilution series to be 100, 30, 10, 3, 1, 0.3, 0.1, 0.03 μM final. Reactions were performed in duplicate in black 384 well plates (small volume, Greiner 784076) in a final reaction volume of 21 μl. Either 1 μl of 50% DMSO or diluted compound was added to the plate. Cezanne 1 was diluted in reaction buffer (40 mM Tris, pH 7.5, 0.005% Tween 20, 0.5 mg/ml BSA, 5 mM—beta-mercaptoethanol) to the equivalent of 0.005 μl/well and 10 μl of diluted Cezanne 1 was added to the compound. Enzyme and compound were incubated for 30 min at room temp. Reactions were initiated by the addition of 50 nM of TAMRA labelled peptide linked to ubiquitin via an iso-peptide bond as fluorescence polarisation substrate. Reactions were read immediately after addition of substrate and following a 2 hr incubation at room temperature. Readings were performed on a Pherastar Plus (BMG Labtech). λ Excitation 540 nm; λ Emission 590 nm.

Sequence of Cezanne 1 (Q6GQQ9 whole entry): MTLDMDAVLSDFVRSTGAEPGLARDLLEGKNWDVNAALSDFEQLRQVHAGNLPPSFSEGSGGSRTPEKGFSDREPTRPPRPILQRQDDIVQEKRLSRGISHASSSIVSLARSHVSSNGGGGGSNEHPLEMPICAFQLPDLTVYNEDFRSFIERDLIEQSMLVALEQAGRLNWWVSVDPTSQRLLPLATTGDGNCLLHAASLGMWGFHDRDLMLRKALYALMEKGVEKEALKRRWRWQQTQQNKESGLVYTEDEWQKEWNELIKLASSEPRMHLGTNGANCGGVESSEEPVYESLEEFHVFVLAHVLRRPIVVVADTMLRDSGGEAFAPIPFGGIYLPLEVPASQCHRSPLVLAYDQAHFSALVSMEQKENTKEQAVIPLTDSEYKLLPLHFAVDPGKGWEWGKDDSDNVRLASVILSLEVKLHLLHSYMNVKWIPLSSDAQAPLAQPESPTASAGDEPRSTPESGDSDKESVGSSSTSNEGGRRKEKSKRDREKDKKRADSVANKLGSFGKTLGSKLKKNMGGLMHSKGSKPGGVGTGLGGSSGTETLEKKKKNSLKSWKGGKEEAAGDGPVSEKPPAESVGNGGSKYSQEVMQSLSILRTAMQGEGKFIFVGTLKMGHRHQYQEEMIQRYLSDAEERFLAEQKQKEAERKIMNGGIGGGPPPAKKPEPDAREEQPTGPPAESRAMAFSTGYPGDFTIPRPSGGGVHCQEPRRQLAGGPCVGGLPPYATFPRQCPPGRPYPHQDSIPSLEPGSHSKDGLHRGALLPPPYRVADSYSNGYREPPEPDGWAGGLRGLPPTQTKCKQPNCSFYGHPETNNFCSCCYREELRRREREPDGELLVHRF

Substance | IC50
2′-Oxo-7′-(4-phenoxyphenyl)-l′,4′-dihydro-2′H-spiro┌pyrrolidine-3,3′-quinoline┐-1-carbonitrile [Example 11] | 1000 to 10000 nM
3-(1-Cyano-2′-oxo-1′4′-dihydro-2′H-spiro┌pyrrolidine-3,3′-quinolin┐-7′-yl)-N,N-dimethylbenzamide [Example 30] | 100 to 1000 nM
7′-(1-Methyl-1H-pyrazol-5-yl)-2′-oxo-1′,4′-dihydro-2′H-spiro┌pyrrolidine-3,3′-quinoline┐-1-carbonitrile [Example 10] | 1000 to 10000 nM
7′-(2-Methylpyridin-4-yl)-2′-oxo-1′,4′-dihydro-2′H-spiro┌pyrrolidine-3,3′-quinoline┐-1-carbonitrile [Example 34] | 1000 to 10000 nM
7′-(3-Cyanophenyl)-2′-oxo-l′,4′-dihydro-2′H-spiro┌pyrrolidine-3,3′-quinoline┐-1-carbonitrile [Example 9] | 1000 to 10000 nM
